PubChem BioAssay (NCI)
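All cell lines were grown in 96-well plates and treated with compound for 48 hours. GI50: concentration for 50% inhibition of growth. TGI: concentration producing complete growth inhibition.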

What was measured:
Test in all cases: DTP human tumour cell line panel, 48 h
[1] = tested on: CAKI-1 renal
[2] = tested on: NCI-H522 lung
[3] = tested on: U251 CNS
[4] = tested on: HOP-62 NSCLC
[5] = tested on: HCT-15 colon
[6] = tested on: SK-OV-3 ovarian
[7] = tested on: OVCAR-8 ovarian
[8] = tested on: SN12C renal
[9] = tested on: SW-620 colon
[10] = tested on: SF-268 CNS

c1ccc(N=C2SC(=NC3CCCCC3)N(C3CCCCC3)C2=Nc2ccccc2)cc1 was tested, and the TGI [1] was > 100 µM, the TGI [2] was > 100 µM and the TGI [3] was > 100 µM. The TGI [4] was > 100 µM, the TGI [5] was > 100 µM and the TGI [6] was > 100 µM. For the same compound, the TGI [7] was > 100 µM and the TGI [8] was > 100 µM.

In the case of COc1ccccc1C1C(C(=O)O)=C(CO)Oc2cc3c(cc21)OCO3 (configuration not stated), the TGI [9] is reported as > 100 µM, the TGI [1] is reported as > 100 µM and the TGI [2] is reported as > 100 µM. The TGI [10] was > 100 µM, the TGI [3] was > 100 µM and the TGI [5] was > 100 µM. For the same compound, the TGI [6] was > 100 µM, the TGI [7] was > 100 µM and the TGI [8] was > 100 µM.

Cc1nc(N)sc1-c1ccnc(Nc2ccc(N3CCOCC3)cc2)n1 showed a GI50 [9] of 1.41 µM, a TGI [9] of 24.9 µM and a GI50 [1] of 0.517 µM. It also gave a TGI [1] of 3.05 µM, a GI50 [2] of 1.41 µM and a TGI [2] of 87.5 µM. It also gave a GI50 [10] of 1.54 µM, a TGI [10] of 50.7 µM and a GI50 [3] of 2.36 µM. The TGI [3] was > 100 µM, the GI50 [4] was 1.87 µM and the TGI [4] was 60.3 µM. For the same compound, the GI50 [5] was 0.991 µM, the TGI [5] was > 100 µM and the GI50 [6] was 2.62 µM. The TGI [6] was > 100 µM, the GI50 [7] was 2.78 µM and the TGI [7] was > 100 µM. For the same compound, the GI50 [8] was 2.24 µM and the TGI [8] was > 100 µM.

With Cc1ccc(S(=O)(=O)Oc2cc(-c3ccccc3)nc3ccccc23)cc1 the TGI [9] was > 47.3 µM, the TGI [2] was 3.7 µM and the TGI [10] was > 100 µM. The TGI [3] was 9.85 µM, the TGI [4] was 18.8 µM and the TGI [5] was > 40.3 µM. For the same compound, the TGI [6] was 5.23 µM, the TGI [7] was > 77.6 µM and the TGI [8] was > 41.5 µM.

CC(=O)OC1CCC2(C)C3CCC4(C)C(c5ccc(=O)oc5)CC5OC54C3CCC2(O)C1 (configuration not stated) was tested, and the TGI [9] was 4.04 µM, the TGI [1] was 2.23 µM and the TGI [2] was 2.04 µM. The TGI [10] was 2.57 µM, the TGI [3] was 9.14 µM and the TGI [4] was 3.41 µM. It also gave a TGI [5] of 14.6 µM, a TGI [6] of 10.2 µM and a TGI [7] of 7.73 µM. For the same compound, the TGI [8] was 34.2 µM.

In the case of COc1ccc(C2CC(c3cccc(Nc4ccncc4)c3)=NN2c2cc(Cl)cc(Cl)c2)cc1 (configuration not stated), the GI50 [9] is reported as 1.71 µM, the TGI [9] is reported as 3.26 µM and the GI50 [1] is reported as 1.62 µM. It also gave a TGI [1] of 3.1 µM, a GI50 [10] of 2.2 µM and a TGI [10] of 5.62 µM. The GI50 [4] was 2.08 µM, the TGI [4] was 4.66 µM and the GI50 [5] was 1.7 µM. The TGI [5] was 3.26 µM, the GI50 [6] was 11.3 µM and the TGI [6] was 31.4 µM. The GI50 [8] was 1.62 µM and the TGI [8] was 3.16 µM.

In the case of NC(Cc1cccc([N+](=O)[O-])c1)C(=O)O (configuration not stated), the TGI [9] is reported as > 100 µM, the TGI [1] is reported as > 100 µM and the TGI [2] is reported as > 100 µM. For the same compound, the TGI [10] was > 100 µM, the TGI [3] was > 100 µM and the TGI [4] was > 100 µM. The TGI [5] was > 100 µM, the TGI [6] was > 100 µM and the TGI [7] was > 100 µM. For the same compound, the TGI [8] was > 100 µM.

For O=C(OC(=O)n1ccc2ccccc21)n1ccc2ccccc21, the TGI [9] was > 100 µM, the TGI [1] was > 100 µM and the TGI [10] was > 100 µM. For the same compound, the TGI [3] was > 100 µM, the TGI [4] was > 100 µM and the TGI [5] was > 100 µM. For the same compound, the TGI [6] was > 100 µM, the TGI [7] was > 100 µM and the TGI [8] was > 100 µM.

NCCCNc1nc2ccccc2c2c(=O)c3cc(OC(F)(F)F)ccc3sc12 was tested, and the GI50 [1] was 1.58 µM, the TGI [1] was 2.93 µM and the GI50 [7] was 2.01 µM. The TGI [7] was 4.77 µM, the GI50 [8] was 1.66 µM and the TGI [8] was 3.14 µM.

For C=CC(Br)(CBr)CCC(Cl)C(C)C (configuration not stated), the TGI [9] was 3.35 µM, the TGI [1] was 7.52 µM and the TGI [2] was 2.8 µM. It also gave a TGI [10] of 3.07 µM, a TGI [3] of 3.02 µM and a TGI [4] of 3.2 µM. It also gave a TGI [6] of 18.6 µM and a TGI [8] of 3.19 µM.

For CCC[CH2][Ge]([CH2]CCC)([CH2]CCC)[O]C(=O)CC(=O)c1ccccc1, the GI50 [9] was 0.825 µM, the TGI [9] was 12.6 µM and the GI50 [1] was 6.37 µM. The TGI [1] was 20.6 µM, the GI50 [2] was 0.261 µM and the TGI [2] was 10.4 µM. It also gave a GI50 [10] of 4.57 µM, a TGI [10] of 21.6 µM and a GI50 [3] of 3.27 µM. It also gave a TGI [3] of 17.6 µM, a GI50 [4] of 2.2 µM and a TGI [4] of 13.6 µM. It also gave a GI50 [5] of 0.316 µM, a TGI [5] of 10.4 µM and a GI50 [6] of 0.667 µM. It also gave a TGI [6] of 14 µM, a GI50 [7] of 1.65 µM and a TGI [7] of 18.3 µM. It also gave a GI50 [8] of 0.538 µM and a TGI [8] of 15 µM.

With O=NN(CCCl)C(=O)NC1CCSc2ccccc21 (configuration not stated) the TGI [9] was > 100 µM, the TGI [1] was > 100 µM and the TGI [2] was > 100 µM. The TGI [10] was > 100 µM, the TGI [3] was > 100 µM and the TGI [4] was > 100 µM. The TGI [5] was > 100 µM, the TGI [6] was > 100 µM and the TGI [7] was > 100 µM. For the same compound, the TGI [8] was > 100 µM.

CC(=O)Oc1cccc2c(/C=N/NC(N)=S)ncc(C)c12 was tested, and the TGI [9] was > 49.7 µM, the TGI [1] was 15.6 µM and the TGI [2] was 32.5 µM. The TGI [10] was 17.8 µM, the TGI [3] was > 42.6 µM and the TGI [4] was 14.6 µM. For the same compound, the TGI [5] was 24.1 µM, the TGI [6] was 17.1 µM and the TGI [7] was > 34.9 µM. For the same compound, the TGI [8] was 17.1 µM.

Cc1cc(=O)[nH]c(NN2C(Cl)C(=O)C2c2cccc(O)c2)n1 (configuration not stated) was tested, and the TGI [9] was > 100 µM, the TGI [10] was > 100 µM and the TGI [3] was > 100 µM. For the same compound, the TGI [4] was > 100 µM, the TGI [5] was > 100 µM and the TGI [7] was > 100 µM. For the same compound, the TGI [8] was > 100 µM.

Cc1ccc2c(n1)C(=O)c1[nH]c3ccccc3c1C2=O was tested, and the GI50 [9] was 2.97 µM, the TGI [9] was > 100 µM and the GI50 [1] was 2.37 µM. For the same compound, the TGI [1] was > 100 µM, the GI50 [2] was 2.48 µM and the TGI [2] was 9.05 µM. For the same compound, the GI50 [10] was 3.82 µM, the TGI [10] was > 100 µM and the GI50 [3] was 2.93 µM. For the same compound, the TGI [3] was > 100 µM, the GI50 [6] was 4.95 µM and the TGI [6] was > 100 µM. For the same compound, the GI50 [7] was 2.61 µM, the TGI [7] was > 100 µM and the GI50 [8] was 2 µM. For the same compound, the TGI [8] was 6.06 µM.

Work on O=[N+]([O-])c1ccc(C=C2C(Cl)=C(Cl)C(Cl)=C2Cl)cc1 yielded a GI50 [1] of 1.11 µM, a TGI [1] of 3.4 µM and a GI50 [10] of 2.01 µM. For the same compound, the TGI [10] was 4.4 µM, the GI50 [3] was 1.77 µM and the TGI [3] was 3.46 µM. It also gave a GI50 [4] of 1.96 µM, a TGI [4] of 4.38 µM and a GI50 [5] of 3.17 µM. The TGI [5] was > 100 µM, the GI50 [6] was 12.1 µM and the TGI [6] was 29.9 µM. For the same compound, the GI50 [7] was 2.16 µM, the TGI [7] was 5.28 µM and the GI50 [8] was 3.02 µM. The TGI [8] was > 100 µM.

In the case of NNC(N)Nc1ccccc1 (configuration not stated), the TGI [9] is reported as > 100 µM, the TGI [1] is reported as > 100 µM and the TGI [2] is reported as > 100 µM. For the same compound, the TGI [10] was > 100 µM, the TGI [3] was > 100 µM and the TGI [4] was > 100 µM. The TGI [5] was > 100 µM, the TGI [6] was > 100 µM and the TGI [7] was > 100 µM. For the same compound, the TGI [8] was > 100 µM.
